From publication PMC6585649 (Clinical Pharmacology in Drug Development, 2018)
Where two headings read alike, the source gives them in different places.

How the values were obtained:
[1] = assay type: in vivo, human (healthy subjects); details: for AUC(0-t) / AUC(0-inf) / Cmax / half-life: human, plasma, oral; for AUC(0-t): AUCt
Multiple-dose = assay type: in vivo, human (healthy subjects); details: for AUC(0-t) / Cmax / half-life at 7 days: human, plasma, oral; for AUC(0-t): AUC0–24, steady state (day 7); for Cmax: steady state (day 7); for half-life at 7 days: t1/2, steady state; for Cmin: steady state (day 7, 24-hour period)
[2] = assay type: in vivo; details: human, not told, po
[3] = cited from earlier work
[4] = cited from earlier work; remark: listed apart in the source
[5] = cited from earlier work; remark: listed apart in the source
cytochrome P450 (CYP) 3A = details: in vitro; cited from earlier work
CYP2D6 = details: in vitro; cited from earlier work
[6] = 6 and 12 mg twice daily, IR formulation, background methotrexate; cited from earlier work
[7] = 12 mg, single 12 mg IR, fasting, n = 11, mean ± SD
[8] = 15 mg, single 15 mg ER, fasting, n = 11, mean ± SD
[9] = 24 mg, single 24 mg IR, fasting, n = 12, mean ± SD
[10] = 30 mg, single 30 mg ER after high-fat breakfast, n = 12, mean ± SD
[11] = 30 mg, single 30 mg ER, fasting, n = 12, mean ± SD
[12] = 6 mg, 6 mg twice-daily IR, fasting, n = 11, mean ± SD
[13] = 12 mg, 12 mg twice-daily IR, fasting, n = 11, mean ± SD
[14] = 15 mg, 15 mg once-daily ER, fasting, n = 12, mean ± SD
[15] = 15 mg, 15 mg once-daily ER, nonfasting, n = 12, mean ± SD
[16] = 30 mg, 30 mg once-daily ER, fasting, n = 11, mean ± SD
[17] = 30 mg, 30 mg once-daily ER, nonfasting, n = 12, mean ± SD

## CC[C@@H]1CN(C(=O)NCC(F)(F)F)C[C@@H]1c1cnc2cnc3[nH]ccc3n12 [Upadacitinib]
[1]; ER formulation
  increase in AUC and Cmax after a high-fat meal compared with fasting: ~20%
[1]; [7]
  AUC(0-t): 231 ± 34.5 ng·h/mL
  AUC(0-inf): 234 ± 34.6 ng·h/mL
  Cmax: 64.6 ± 10.3 ng/mL
[1]; 12 mg, t1/2, single 12 mg IR, fasting, n = 11, mean ± SD
  half-life: 18.3 ± 13.3 h
[1]; [8]
  AUC(0-t): 227 ± 60 ng·h/mL
  AUC(0-inf): 242 ± 63.6 ng·h/mL
[1]; 15 mg, t1/2, single 15 mg ER, fasting, n = 11, mean ± SD
  half-life: 21.9 ± 23.1 h
[1]; [9]
  AUC(0-inf): 524 ± 133 ng·h/mL
  Cmax: 176 ± 65.6 ng/mL
[1]; 24 mg, t1/2, single 24 mg IR, fasting, n = 12, mean ± SD
  half-life: 15.3 ± 13.6 h
[1]; [10]
  AUC(0-t): 564 ± 145 ng·h/mL
  Cmax: 76.8 ± 29.6 ng/mL
[1]; [11]
  AUC(0-t): 477 ± 130 ng·h/mL
  AUC(0-inf): 491 ± 133 ng·h/mL
  Cmax: 63.7 ± 21.1 ng/mL
[1]; 30 mg, t1/2, single 30 mg ER after high-fat breakfast, n = 12, mean ± SD
  half-life: 15.9 ± 11 h
[1]; 30 mg, t1/2, single 30 mg ER, fasting, n = 12, mean ± SD
  half-life: 18.1 ± 14.5 h
Multiple-dose; 15 and 30 mg once daily vs 6 and 12 mg twice daily, fasting, steady state
  difference of central values for Cmax and Cmin, ER once daily vs IR twice daily: ≤ 13%
Multiple-dose; [12]
  AUC(0-t): 288 ± 63.5 ng·h/mL
  Cmax: 33.9 ± 8.8 ng/mL
  half-life at 7 days: 24.5 ± 18.1 h
Multiple-dose; [13]
  AUC(0-t): 534 ± 97.8 ng·h/mL
  Cmax: 73.9 ± 14.2 ng/mL
  half-life at 7 days: 11.5 ± 9.2 h
Multiple-dose; [14]
  AUC(0-t): 279 ± 71.4 ng·h/mL
  Cmax: 31.9 ± 11.2 ng/mL
  half-life at 7 days: 16.9 ± 12 h
Multiple-dose; [15]
  AUC(0-t): 317 ± 68.1 ng·h/mL
  Cmax: 36 ± 8.8 ng/mL
  half-life at 7 days: 15.1 ± 10.1 h
Multiple-dose; [16]
  AUC(0-t): 525 ± 123 ng·h/mL
  Cmax: 68.2 ± 20.5 ng/mL
  half-life at 7 days: 22.9 ± 21.1 h
Multiple-dose; [17]
  AUC(0-t): 582 ± 172 ng·h/mL
  Cmax: 79.5 ± 31.8 ng/mL
Multiple-dose; once-daily dosing of ER formulation, predose concentrations
  steady state achieved by day: ≤ 4 days
Multiple-dose; 6 mg twice-daily IR, fasting, n = 11, mean ± SD
  Cmin: 2.7 ± 0.6
Multiple-dose; 12 mg twice-daily IR, fasting, n = 11, mean ± SD
  Cmin: 3.8 ± 2.2
Multiple-dose; 15 mg once-daily ER, fasting, n = 12, mean ± SD
  Cmin: 3.1 ± 1.1
Multiple-dose; 15 mg once-daily ER, nonfasting, n = 12, mean ± SD
  Cmin: 2.8 ± 1.2
Multiple-dose; 30 mg once-daily ER, fasting, n = 11, mean ± SD
  Cmin: 3.8 ± 1.6
Multiple-dose; 30 mg once-daily ER, nonfasting, n = 12, mean ± SD
  Cmin: 4.6 ± 1.8
[2]
  bioavailability: 70 to 80%
[3]; IR formulation
  dose eliminated unchanged in urine: approximately 20%
  time to maximum plasma concentration: ≤ 2 h
[3]; twice-daily dosing of the IR formulation
  accumulation in plasma: no significant accumulation
[4]; CYP inducer rifampin
  decrease in upadacitinib AUC with rifampin: 60%
[4]; IR formulation
  decrease of Cmax by food: approximately 20%
  impact of food on AUC: no impact
[4]; strong CYP3A inhibitor ketoconazole
  increase in upadacitinib AUC with ketoconazole: 75%
[5]
  effect of CYP2D6 metabolic phenotype on apparent oral clearance: no effect
  residual error in upadacitinib concentrations: 31%
[5]; healthy subjects
  intersubject variability of apparent central volume of distribution: 14%
  intersubject variability of apparent oral clearance: 16%
[5]; mild renal impairment, estimated
  higher AUC compared with subjects with normal renal function: 16%
[5]; moderate renal impairment, estimated
  higher AUC compared with subjects with normal renal function: 32%
[5]; population pharmacokinetic analyses, estimated
  apparent oral clearance lower in RA patients compared with healthy subjects: 24%
[5]; subjects with RA
  intersubject variability of apparent central volume of distribution: 27%
  intersubject variability of apparent oral clearance: 26%
Cytochrome P450 (CYP) 3A
  substrate of CYP3A: nonsensitive substrate
CYP2D6
  contribution of CYP2D6 to metabolism: minor contribution
[6]
  efficacy in subjects with RA: maximal efficacy
